Experimental data published in publication PMC8759724 (Journal of Enzyme Inhibition and Medicinal Chemistry, 2021).

Legend:
WT PfDHFR [1] = molecular target: WT PfDHFR (Plasmodium falciparum, UniProt P13922, N108S/R59C); test: Differential scanning fluorimetry; type: binding; details: DSF, apo PfDHFR (no NADPH added with the ligand)
WT PfDHFR [2] = molecular target: WT PfDHFR (Plasmodium falciparum, UniProt P13922); test: PfDHFR activity assay; type: biochemical

Nc1nc(=O)c2c([nH]1)NCC(CNc1ccc(C(=O)N[C@@H](CCC(=O)O)C(=O)O)cc1)=N2 [DHF, dihydrofolate]
ΔTm (melting temperature variation) (WT PfDHFR [1]): minor melting temperature variations

NC(=O)C1=CN([C@@H]2O[C@H](COP(=O)(O)OP(=O)(O)OC[C@H]3O[C@@H](n4cnc5c(N)ncnc54)[C@H](OP(=O)(O)O)[C@@H]3O)[C@@H](O)[C@H]2O)C=CC1 [NADPH]
ΔTm (melting temperature variation) (WT PfDHFR [1]): +4 °C

NC(=O)Nc1cccc(C(F)(F)F)c1 [fragment 148, [3-(trifluoromethyl)phenyl]urea]
IC50 (WT PfDHFR [2]): 464 µM

tetrahydrofolate [THF]
ΔTm (melting temperature variation) (WT PfDHFR [1]): minor melting temperature variations
